Broadly, the MIC is the lowest concentration that inhibits growth of the organism.

Holding throughout (format): cell-based
The subject of one assay is Citrobacter diversus. As to the kind of experiment: MIC against Gram-negative bacteria: Citrobacter diversus. In a few lines: (§1)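 Purified recombinant human EGF domain proteins are tested by broth dilution in LB against a 5×10^5 CFU/mL inoculum, with two-fold serial dilutions run in triplicate. Plates are incubated at 37° C with shaking, and the MIC is read as the lowest protein concentration without growth.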

A further assay relates to Proteus vulgaris. As to the kind of experiment: MIC against Gram-negative bacteria: Proteus vulgaris. An outline of the steps: as §1
The test system of the next assay is Serratia marcescens. Nature of the assay: MIC against Gram-negative bacteria: Serratia marcescens. An outline of the steps:
as §1

The next assay relates to E. coli BL21. As to the kind of experiment: MIC against Gram-negative bacteria: E. coli BL21. In a few lines:
as §1

In a further assay the test system is E. coli DH5α. As to the kind of experiment: Antibacterial activity: MIC and growth curve against E. coli DH5α in 96-well plate. Conditions: minimal inhibitory concentration against E. coli DH5α; 96-well plate, 5×10^5 CFU/mL, 37° C., judged after 8 h. An outline of the steps:
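Log-phase bacteria (OD600 ~0.5) resuspended in LB at 5×10^5 CFU/mL, exposed to recombinant protein at 50, 25, 12.5 μg/mL final in triplicate, 37 °C shaking at 175 rpm. OD600 read every 30 min; MIC is lowest concentration showing no growth.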

The subject of the next assay is Enterobacter cloacae. As to the kind of experiment: MIC against Gram-negative bacteria: Enterobacter cloacae. An outline of the steps:
as §1

The test system of the next assay is Aeromonas hydrophila. As to the kind of experiment: MIC against Gram-negative bacteria: Aeromonas hydrophila. In a few lines:
as §1

For the next assay, the system named is Moraxella catarrhalis. Nature of the assay: MIC against Gram-negative bacteria: Moraxella catarrhalis. In a few lines:
as §1

Another assay has as its system Pseudomonas aeruginosa. Nature of the assay: MIC against Gram-negative bacteria: Pseudomonas aeruginosa. An outline of the steps:
as §1

A further assay concerns Klebsiella pneumonia. As to the kind of experiment: MIC against Gram-negative bacteria: Klebsiella pneumonia. In a few lines: as §1
The next assay relates to Proteus mirabilis. Nature of the assay: MIC against Gram-negative bacteria: Proteus mirabilis. An outline of the steps: as §1
Setting [1] is: Citrobacter diversus, 96-well plate, 5×10^5 CFU/mL, 37° C., 10 h.
Where [2] appears, read: Proteus vulgaris, 96-well plate, 5×10^5 CFU/mL, 37° C., 10 h.
Where [3] appears, read: Serratia marcescens, 96-well plate, 5×10^5 CFU/mL, 37° C., 10 h.
Where [4] appears, read: E. coli BL21, 96-well plate, 5×10^5 CFU/mL, 37° C., 10 h.
Where [5] appears, read: Enterobacter cloacae, 96-well plate, 5×10^5 CFU/mL, 37° C., 10 h.
Setting [6] is: Aeromonas hydrophila, 96-well plate, 5×10^5 CFU/mL, 37° C., 10 h.
The mark [7] stands for this setting: Moraxella catarrhalis, 96-well plate, 5×10^5 CFU/mL, 37° C., 10 h.
[8] abbreviates: Pseudomonas aeruginosa, 96-well plate, 5×10^5 CFU/mL, 37° C., 10 h.
Setting [9] is: Klebsiella pneumonia, 96-well plate, 5×10^5 CFU/mL, 37° C., 10 h.
Where [10] appears, read: Proteus mirabilis, 96-well plate, 5×10^5 CFU/mL, 37° C., 10 h.
The mark [11] stands for this setting: 96-well plate, 5×10^5 CFU/mL, 37° C., 10 h.

On to “PRT222 (DVDECAQALHDCRPSQDCHNLPGSYQCTCPDGYRKIGPECV; listed as Homo sapiens)”, for which, in the assay with Citrobacter diversus (C. diversus, 10 h cultivation at 37° C., 5×10^5 CFU/mL), the “MIC (μg/mL) C. diversus” value worked out at 25 µg/mL. For the same substance, in the assay with Proteus vulgaris (P. vulgaris, 10 h cultivation at 37° C., 5×10^5 CFU/mL), the “MIC (μg/mL) P. vulgaris” value turned out to be 12.5 µg/mL. Besides, in the assay with Serratia marcescens (S. marcescens, 10 h cultivation at 37° C., 5×10^5 CFU/mL), the “MIC (μg/mL) S. marcescens” value was found to be 25 µg/mL. Besides, the “MIC (μg/mL) E. coli BL21” value in the assay with E. coli BL21 (E. coli BL21, 10 h cultivation at 37° C., 5×10^5 CFU/mL) turned out to be 12.5 µg/mL. In the assay on E. coli DH5α, this substance gave a minimal inhibitory concentration (MIC) of 50 µg/mL. The “MIC (μg/mL) E. cloacae” value in the assay with Enterobacter cloacae (E. cloacae, 10 h cultivation at 37° C., 5×10^5 CFU/mL) was 25 µg/mL. In the assay on Aeromonas hydrophila (A. hydrophila, 10 h cultivation at 37° C., 5×10^5 CFU/mL), the “MIC (μg/mL) A. hydrophila” value was found to be 12.5 µg/mL. For the same substance, the “MIC (μg/mL) M. catarrhalis” value in the assay on Moraxella catarrhalis (M. catarrhalis, 10 h cultivation at 37° C., 5×10^5 CFU/mL) amounted to 12.5 µg/mL. In the assay with Pseudomonas aeruginosa (P. aeruginosa, 10 h cultivation at 37° C., 5×10^5 CFU/mL), the “MIC (μg/mL) P. aeruginosa” value amounted to 12.5 µg/mL. The “MIC (μg/mL) K. pneumonia” value in the assay on Klebsiella pneumonia (K. pneumonia, 10 h cultivation at 37° C., 5×10^5 CFU/mL) was found to be 12.5 µg/mL. Besides, in the assay on Proteus mirabilis (P. mirabilis, 10 h cultivation at 37° C., 5×10^5 CFU/mL), the “MIC (μg/mL) P. mirabilis” value came to 25 µg/mL.
In the case of “PRT40 (KGIDCSDGFNGGCEQLCLQQTLPLPYDATSSTIFMFCGCVEEYKLAPDGKSCL; listed as Homo sapiens)”, the “MIC (μg/mL) C. diversus” value in the assay with Citrobacter diversus (setting [1]) was 25 µg/mL. Further, in the assay with Proteus vulgaris (setting [2]), the “MIC (μg/mL) P. vulgaris” value is 25 µg/mL. Also, the “MIC (μg/mL) S. marcescens” value in the assay on Serratia marcescens (setting [3]) worked out at 12.5 µg/mL. In addition, the “MIC (μg/mL) E. coli BL21” value in the assay with E. coli BL21 (setting [4]) came out at 12.5 µg/mL. The minimum inhibitory concentration (MIC) against E. coli DH5α is 25 µg/mL. For the same substance, in the assay with Enterobacter cloacae (setting [5]), the “MIC (μg/mL) E. cloacae” value turned out to be 25 µg/mL. In the assay with Aeromonas hydrophila (setting [6]), the “MIC (μg/mL) A. hydrophila” value was 50 µg/mL. The “MIC (μg/mL) M. catarrhalis” value in the assay with Moraxella catarrhalis (setting [7]) came to 12.5 µg/mL. For the same substance, in the assay on Pseudomonas aeruginosa (setting [8]), the “MIC (μg/mL) P. aeruginosa” value worked out at 25 µg/mL. In addition, the “MIC (μg/mL) K. pneumonia” value in the assay on Klebsiella pneumonia (setting [9]) was 12.5 µg/mL. For the same substance, in the assay on Proteus mirabilis (setting [10]), the “MIC (μg/mL) P. mirabilis” value was determined as 12.5 µg/mL.
With “PRT1020 (SRQTCANNRHQCSVHAECRDYATGFCCSCVAGYTGNGRQCV; listed as Homo sapiens)”, the minimal inhibitory concentration (MIC) stood at 12.5 µg/mL in the assay on Citrobacter diversus (C. diversus, 10 h cultivation at 37° C.); 50 µg/mL in the assay on Proteus vulgaris (P. vulgaris, 10 h cultivation at 37° C.); 25 µg/mL against Serratia marcescens (S. marcescens, 10 h cultivation at 37° C.); 12.5 µg/mL in the assay with E. coli BL21 (E. coli BL21, 10 h cultivation at 37° C.); 12.5 µg/mL in the assay on E. coli DH5α; 12.5 µg/mL with Enterobacter cloacae (E. cloacae, 10 h cultivation at 37° C.). In addition, the MIC in the assay with Aeromonas hydrophila (A. hydrophila, 10 h cultivation at 37° C.) came to 12.5 µg/mL; with Moraxella catarrhalis (M. catarrhalis, 10 h cultivation at 37° C.), 12.5 µg/mL; against Pseudomonas aeruginosa (P. aeruginosa, 10 h cultivation at 37° C.) it was 12.5 µg/mL; against Klebsiella pneumonia (K. pneumonia, 10 h cultivation at 37° C.) it was 25 µg/mL; with Proteus mirabilis (P. mirabilis, 10 h cultivation at 37° C.), 12.5 µg/mL.
For “PRT628 (CTCNQHGTCDPNTGICVCSHHTEGPSCERCLPGFYGNPFAGQADDCQP; listed as Homo sapiens)”, the “MIC C. diversus” value against Citrobacter diversus (setting [11]) was 25 µg/mL. In the assay on Proteus vulgaris (setting [11]), the “MIC P. vulgaris” value was found to be 12.5 µg/mL. Also, the “MIC S. marcescens” value against Serratia marcescens (setting [11]) was 25 µg/mL. Further, the “MIC E. coli BL21” value against E. coli BL21 (setting [11]) turned out to be 12.5 µg/mL. The substance further displayed a minimum inhibitory concentration (MIC) in the assay with E. coli DH5α of 12.5 µg/mL. Besides, the “MIC E. cloacae” value against Enterobacter cloacae (setting [11]) worked out at 25 µg/mL. Besides, the “MIC A. hydrophila” value in the assay with Aeromonas hydrophila (setting [11]) was found to be 12.5 µg/mL. For the same substance, the “MIC M. catarrhalis” value in the assay on Moraxella catarrhalis (setting [11]) worked out at 12.5 µg/mL. Besides, in the assay on Pseudomonas aeruginosa (setting [11]), the “MIC P. aeruginosa” value came out at 25 µg/mL. In addition, the “MIC K. pneumonia” value in the assay on Klebsiella pneumonia (setting [11]) amounted to 12.5 µg/mL. Further, in the assay with Proteus mirabilis (setting [11]), the “MIC P. mirabilis” value was 25 µg/mL.
On to “PRT1268 (CAVNNGGCDRTCKDTSTGVHCSCPVGFTLQLDGKTC; listed as Homo sapiens)”, for which, in the assay with Citrobacter diversus (setting [1]), the “MIC against C. diversus” value is 12.5 µg/mL. In the assay on Proteus vulgaris (setting [2]), the “MIC against P. vulgaris” value was 25 µg/mL. Further, the “MIC against S. marcescens” value against Serratia marcescens (setting [3]) was determined as 50 µg/mL. The “MIC against E. coli BL21” value in the assay on E. coli BL21 (setting [4]) amounted to 12.5 µg/mL. Further, the minimal inhibitory concentration (MIC) against E. coli DH5α amounted to 50 µg/mL. In the assay on Enterobacter cloacae (setting [5]), the “MIC against E. cloacae” value amounted to 25 µg/mL. The “MIC against A. hydrophila” value with Aeromonas hydrophila (setting [6]) amounted to 50 µg/mL. For the same substance, the “MIC against M. catarrhalis” value with Moraxella catarrhalis (setting [7]) worked out at 50 µg/mL. Further, the “MIC against P. aeruginosa” value against Pseudomonas aeruginosa (setting [8]) came out at 50 µg/mL. Also, the “MIC against K. pneumonia” value with Klebsiella pneumonia (setting [9]) turned out to be 12.5 µg/mL. In addition, the “MIC against P. mirabilis” value in the assay with Proteus mirabilis (setting [10]) amounted to 12.5 µg/mL.

(Values after patent publication US9833497B2, “Human originated EGF domain proteins and use of the same” (CHENGDU SOURCEBIO LIMITED-LIABILITY COMPANY, priority 2013, dated 2017).)
